From paper PMC9459403, “New inhibitors of cathepsin V impair tumor cell proliferation and elastin degradation and increase immune cell cytotoxicity” (Computational and Structural Biotechnology Journal, 2022)
Entries after “also recorded” stand apart in the source; their conditions may differ. Marks after values point to notes of the source that are not given here. Where a SMILES comes first, the peptide text is derived from it. [ ]: non-standard residue; d: D form. The star is where a group is joined. Sta = CC(C)C[C@H](N)[C@@H](O)CC(=O)O; Isovaleryl = CC(C)CC(=O)*

What was measured:
MCF7 cells = test: Proliferation assay (CFSE-labeled cells, flow cytometry); assay type: cell-based, human; settings: 72 h; E-64d 10 μM, pepstatin 20 μM, LHVS 10 nM, CLIK-148 1 μM
Description: To assess the effect of cathepsin V inhibitors on cell proliferation, MCF7 cells were fluorescently labeled with carboxyfluorescein succinimidyl ester (CFSE; ImmunoChemistry Technologies, Bloomington, MN, USA) in PBS for 15 min at room temperature according to the manufacturer’s instructions. Cells were washed with PBS, resuspended in complete medium, seeded (at 4 × 10^4 cells/well) into 24-well plates, and allowed to adhere overnight. Cells were then treated with the following inhibitors: compound 7 (10 μM), E-64d (10 μM), CLIK-148 (1 μM), LHVS (10 nM), pepstatin (20 μM), their combinations, or DMSO (0.1 %) in 500 μL of medium for 72 h at 37 °C. To prepare cells for flow cytometry, cells were detached and transferred to round-bottomed polystyrene tubes and washed with PBS. Before measurement, 7-aminoactinomycin D (7-AAD; ImmunoChemistry Technologies, Bloomington, MN, USA) was added according to the manufacturer’s instructions to exclude dead cells. Therefore, the green fluorescence arising from CFSE was monitored only for viable cells. The measurement was performed using a FACSCalibur instrument (BD Biosciences, San Jose, CA, USA).

[1] = tested on: U-937-derived macrophages; test: Intracellular elastin-FITC degradation; assay type: cell-based, human; settings: 24 h; for effect on degradation of elastin-FITC compared to control cells: CLIK-148 1 μM, LHVS 10 nM; for decrease of elastin-FITC degradation: 10 μM, vs DMSO
Description: To evaluate the effect of the inhibitors on the elastolytic activity of cathepsin V, we assessed the intracellular degradation of elastin-FITC, a soluble bovine neck ligament elastin that is heavily labeled with FITC such that the fluorescence of the conjugate is quenched. Upon proteolysis, fluorescence is recovered and can be detected. U-937 cells, differentiated into macrophage-like cells, were seeded (at 1 × 10^5 cells/well) into 24-well plates with 500 μL of medium supplemented with 50 nM PMA. Inhibitors or DMSO (0.1 %) and elastin-FITC (10 μg/mL; AnaSpec, Fermont, CA, USA) were added to the medium and incubated for 24 h at 37 °C. Cells were detached and washed with PBS, and propidium iodide (BD Bioscience) was added to exclude dead cells. Therefore, green fluorescence arising from elastin-FITC degradation was monitored only for viable cells. The measurement was performed using a FACSCalibur instrument (BD Biosciences).

[2] = biological target: T1, human recombinant cathepsin L (Homo sapiens, UniProt P07711); test: Determination of relative inhibition, substrate Z-Phe-Arg-AMC; assay type: biochemical; settings: inhibitor 50 μM; substrate 2 μM; mean ± SD (n = 2); read-out: Cathepsin L Ri (%) relative inhibition
T1 construct: made in house; host or cells: Escherichia coli
T1 sequence (P07711 114-333): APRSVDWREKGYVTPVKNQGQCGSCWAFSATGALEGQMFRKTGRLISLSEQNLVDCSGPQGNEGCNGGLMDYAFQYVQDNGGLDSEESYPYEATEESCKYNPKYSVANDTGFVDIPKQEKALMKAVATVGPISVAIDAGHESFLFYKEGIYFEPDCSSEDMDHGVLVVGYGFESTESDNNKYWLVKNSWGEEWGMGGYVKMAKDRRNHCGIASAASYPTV
Description: (§1) Human recombinant cathepsin V was expressed in Pichia Pastoris, and human recombinant cathepsin L was expressed in Escherichia coli, as reported, [51]. To determine the activities of cathepsins V and L, 100 mM acetate buffer (pH 5.5), containing 0.1 % PEG 8000 (Sigma-Aldrich, St. Louis, MO, USA), 5 mM cysteine, and 1.5 mM EDTA was used. Prior to the assay, the enzyme was activated in the assay buffer for 5 min at 37 °C.
(§2) The effect of the inhibitors on cathepsin V and L activity was determined using the substrate Z-Phe-Arg-AMC (Bachem, Bubendorf, Switzerland). The reaction was initiated by adding 90 μL of the activated enzyme (final concentration 2.5 ng/mL and 0.02 nM for cathepsins V and L, respectively) to the wells of a black microtiter plate containing 5 μL of substrate (with a final concentration 2 μM) and 5 μL of inhibitor (with a final concentration of 50 μM). The formation of fluorescent degradation products during the reaction was monitored continuously at 460 nm ± 10 nm with excitation at 380 nm ± 20 nm at 37 °C on a Tecan Infinite M1000 (Mannedorf, Switzerland) spectrofluorometer. All assay mixtures contained 5 % (v/v) DMSO. To prevent false-positive inhibition due to the formation of compound aggregates, 0.01 % Triton X-100 was used. All measurements were performed in triplicate and repeated at least twice. Relative inhibition was calculated using the following equation: relative inhibition (%) = 100(1- vi/vo), where vi and vo denote the reaction velocities in the presence and absence of the inhibitor, respectively.

Cathepsin V [3] = biological target: T2, Cathepsin V (Homo sapiens, UniProt O60911); test: as above; assay type: biochemical; settings: inhibitor 50 μM; substrate 2 μM; mean ± SD (n = 2); read-out: Cathepsin V Ri (%) relative inhibition
T2 construct: made in house; host or cells: Pichia pastoris
T2 sequence (O60911 114-334): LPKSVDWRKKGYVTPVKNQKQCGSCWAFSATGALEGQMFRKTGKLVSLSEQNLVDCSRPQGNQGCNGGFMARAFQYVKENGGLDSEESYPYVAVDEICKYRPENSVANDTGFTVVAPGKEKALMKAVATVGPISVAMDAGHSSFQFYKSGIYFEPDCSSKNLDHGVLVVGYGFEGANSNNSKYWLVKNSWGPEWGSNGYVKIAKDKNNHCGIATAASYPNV
Description: as §1, §2

Cathepsin V [4] = biological target: T2, Cathepsin V; test: Determination of binding reversibility (dilution method); assay type: biochemical; settings: inhibitor 100 μM, cathepsin V 500 ng/ml
Description: Binding reversibility was determined according to the dilution method, which measures the recovery of enzymatic activity after rapid dilution of the enzyme-inhibitor complex. Cathepsin V (500 ng/ml) was incubated in the assay buffer with the inhibitor (100 μM). Half of the reaction mixture was immediately diluted 100-fold with the assay buffer and added to the wells of a black microplate containing 5 μL of substrate (at a final concentration of 2 μM), and the activity was measured. The other half of the reaction mixture was incubated for 2 h before it was diluted 100-fold, and then the activity was measured. The assay was performed in triplicates and repeated at least two times.

[5] = biological target: T1, human recombinant cathepsin L; test: Determination of Ki values and mode of inhibition; assay type: biochemical
Description: as §1
(§3) Inhibition constants were calculated from reaction velocities measured at three substrate concentrations (0.5, 1, and 4 μM) in the presence of inhibitors at seven concentrations (0, 20, 40, 60, 80, 100, and 200 µM). The reaction was initiated by adding 90 μL of enzyme at final concentrations of 2.5 ng/mL and 0.02 nM for cathepsins V and L, respectively, to the wells of a black microtiter plate containing 5 μL of substrate and 5 μL of inhibitor. To evaluate cathepsin V and L activity, the substrate Z-Phe-Arg-AMC was used. The formation of the fluorescent degradation products was monitored as described above. All assay mixtures contained 5 % (v/v) DMSO. All measurements were performed in duplicates and repeated at least twice. The SigmaPlot® 12, Enzyme Kinetics Module™ 1.3 was used to calculate Ki values.

Cathepsin V [6] = biological target: T2, Cathepsin V; test: Determination of Ki values and mode of inhibition; assay type: biochemical; settings: for fold lower inhibition constant for cathepsin V than cathepsin L: selectivity cathepsin V vs cathepsin L
Description: as §1, §3

## CN(C)C(=O)[C@H](Cc1ccccc1)NC(=O)[C@H]1O[C@@H]1C(=O)NCCc1ccccn1 [CLIK-148, reference compound]
MCF7 cells
  effect on cell proliferation (relative CFSE fluorescence intensity vs DMSO): no effects on cell proliferation
[1]
  effect on degradation of elastin-FITC compared to control cells: did not decrease

## CC(=O)c1cccc(NC(=O)c2cnc3sccn3c2=O)c1 [Compound 4, N-(3-acetylphenyl)-5-oxo-5H-thiazolo[3,2-a]pyrimidine-6-carboxamide]
[2]
  inhibition at 50 µM: 23.5 ± 2.2%
Cathepsin V [3]
  inhibition at 50 µM: > 20%
Cathepsin V [4]
  binding reversibility: cathepsin V activity after 2 h incubation and 100-fold rapid dilution: reversible inhibition
[5]
  mode of inhibition of cathepsin L: competitive
[5]; mean ± SD (n = 2)
  Ki: 84.3 ± 4 µM
Cathepsin V [6]
  mode of inhibition of cathepsin V: competitive
Cathepsin V [6]; mean ± SD (n = 2)
  Ki: 352 ± 78.6 µM

## O=C(Nc1nc2c(s1)CN(Cc1ccccc1)CC2)c1cccc2ccccc12 [Compound 5, N-(5-benzyl-4,5,6,7-tetrahydrothiazolo[5,4-c]pyridin-2-yl)-1-naphthamide]
[2]
  inhibition at 50 µM: 30.3 ± 5.5%
Cathepsin V [3]
  inhibition at 50 µM: -5.8 ± 7%
Cathepsin V [4]
  binding reversibility: cathepsin V activity after 2 h incubation and 100-fold rapid dilution: reversible inhibition; also recorded: restored
[5]
  mode of inhibition of cathepsin L: uncompetitive
[5]; mean ± SD (n = 2)
  Cathepsin L Ki: 11.2 ± 0.1 µM
  Cathepsin L Ki′: 11.2 ± 0.1 µM
  Cathepsin L Ki′ (µM): 11.2 ± 0.1^e µM
Cathepsin V [6]; mean ± SD (n = 2)
  Cathepsin V Ki (µM): no inhibition

## CCCNC(=O)[C@H]1O[C@@H]1C(=O)N[C@H](C(=O)N1CCC[C@@H]1C(=O)OC)[C@@H](C)CC [Compound 25, Methyl ((2S,3S)-3-(propylcarbamoyl)oxirane-2-carbonyl)-L-isoleucyl-D-prolinate]
[2]
  inhibition at 50 µM: 83.7 ± 1%
Cathepsin V [4]
  binding reversibility: cathepsin V activity after 2 h incubation and 100-fold rapid dilution: irreversible; also recorded: completely blocked
[5]
  mode of inhibition of cathepsin L: competitive
[5]; mean ± SD (n = 2)
  Ki: 9.9 ± 0.9 µM
Cathepsin V [6]
  mode of inhibition of cathepsin V: competitive
Cathepsin V [6]; mean ± SD (n = 2)
  Ki: 8 ± 0.02 µM
[1]
  decrease of elastin-FITC degradation: 12.6 ± 4.8%

## Cc1cc(OCc2ccccc2)c(C(=O)C2OC2c2cc3ccccc3o2)cc1C (centres unmarked) [Compound 27, (3-(Benzofuran-2-yl)oxiran-2-yl)(2-(benzyloxy)-4,5-dimethylphenyl)methanone]
[2]
  inhibition at 50 µM: 22.6 ± 5.1%
Cathepsin V [3]
  inhibition at 50 µM: > 20%
Cathepsin V [4]
  binding reversibility: cathepsin V activity after 2 h incubation and 100-fold rapid dilution: tight-binding or irreversible; also recorded: only partially restored
[5]
  mode of inhibition of cathepsin L: competitive
[5]; mean ± SD (n = 2)
  Ki: 249 ± 29.8 µM
Cathepsin V [6]
  mode of inhibition of cathepsin V: noncompetitive
  fold lower inhibition constant for cathepsin V than cathepsin L: more than 3 fold
Cathepsin V [6]; mean ± SD (n = 2)
  Cathepsin V Ki′ (µM): 68.3 ± 4.6 ^g µM
  Ki: 68.3 ± 4.6 µM
[1]
  decrease of elastin-FITC degradation: 7.1 ± 2.7%

## O=C(c1ccccc1OCc1ccccc1)C1OC1c1csc(-c2ccccc2)n1 (centres unmarked) [Compound 40, (2-(Benzyloxy)phenyl)(3-(2-phenylthiazol-4-yl)oxiran-2-yl)methanone]
[2]
  inhibition at 50 µM: 12.4 ± 0.7%
Cathepsin V [3]
  inhibition at 50 µM: 27.6 ± 8.7%
Cathepsin V [4]
  binding reversibility: cathepsin V activity after 2 h incubation and 100-fold rapid dilution: reversible; also recorded: restored
[5]
  mode of inhibition of cathepsin L: competitive
[5]; mean ± SD (n = 2)
  Ki: 454 ± 69.1 µM
Cathepsin V [6]
  mode of inhibition of cathepsin V: uncompetitive
  fold lower inhibition constant for cathepsin V than cathepsin L: 21 fold
Cathepsin V [6]; mean ± SD (n = 2)
  Cathepsin V Ki′: 21.2 ± 2.0 µM
  Cathepsin V Ki′ (µM): 21.2 ± 2.0^f µM

## O=C(NCC1CCN(C(=O)Oc2ccccc2)CC1)NC(c1ccccc1)c1ccccc1 [Compound 42, Phenyl 4-((3-benzhydrylureido)methyl)piperidine-1-carboxylate]
[2]
  inhibition at 50 µM: 3.5 ± 3.1%
Cathepsin V [3]
  inhibition at 50 µM: 21.6 ± 4.6%
Cathepsin V [4]
  binding reversibility: cathepsin V activity after 2 h incubation and 100-fold rapid dilution: reversible; also recorded: restored
[5]
  mode of inhibition of cathepsin L: noncompetitive
[5]; mean ± SD (n = 2)
  Cathepsin L Ki′ (µM): 319.2 ± 28.6^e µM
  Ki: 319 ± 28.6 µM
Cathepsin V [6]
  mode of inhibition of cathepsin V: noncompetitive
  fold lower inhibition constant for cathepsin V than cathepsin L: more than 2 fold
Cathepsin V [6]; mean ± SD (n = 2)
  Cathepsin V Ki′ (µM): 155.8 ± 3.4^e µM
  Ki: 156 ± 3.4 µM

## CC(C)C[C@H](NC(=O)N1CCOCC1)C(=O)N[C@H](/C=C/S(=O)(=O)c1ccccc1)CCc1ccccc1 [LHVS, morpholinurea-leucine-homophenylalanine-vinylsulfone-phenyl, reference compound]
MCF7 cells
  effect on cell proliferation (relative CFSE fluorescence intensity vs DMSO): no effects on cell proliferation
[1]
  effect on degradation of elastin-FITC compared to control cells: did not decrease

## CC(C)CC(=O)N[C@H](C(=O)N[C@H](C(=O)N[C@@H](CC(C)C)[C@@H](O)CC(=O)N[C@@H](C)C(=O)N[C@@H](CC(C)C)[C@@H](O)CC(=O)O)C(C)C)C(C)C [pepstatin] (Isovaleryl-VV[Sta]A[Sta]-OH)
MCF7 cells
  effect on cell proliferation (relative CFSE fluorescence intensity vs DMSO): no effects on cell proliferation
